{"source": "paper PMC6158189", "about": "“A pharmacological probe identifies cystathionine β-synthase as a new negative regulator for ferroptosis” (Cell Death & Disease, 2018)", "key": {"[1]": {"target": "T1, CBS-FL mutant (293T-CBS Q222A) (Homo sapiens, UniProt P35520, Q222A)", "T1 construct": "human CBS or hCSE full-length (CBS-FL or CSE) was subcloned into pGEX-KG, pcDNA3 or pCDH vector; expressed in transfected cells", "experiment": "H2S in HEK293T cells stably expressing CBS Q222A (AzMC probe)", "type": "cell-based", "conditions": "5 and 10 μM CH004, 8 h", "method": "HEK293T cells were transiently transfected with empty vector (EV, i and ii), hCBS-FL (iii and iv) or hCSE (v and vi) plasmids, followed by incubation with DMSO (i–iii and v) or 10 μM CH004 (iv and vi) for 8 h before staining with 50 μM AzMC, a H2S-specific probe (“Materials and Methods” section). For larger fluorescent and bright-field images, please see Supplementary Figure 4. The expression levels of hCBS or hCSE in HEK293T cells after transient transfections were determined by western blotting using an anti-CBS antibody (3E1, 1:2000; Abnova) or anti-CSE antibody (1:500, GeneTex). The densities of protein bands for hCBS or hCSE in the blots were quantified with the ImageJ software (National Institutes of Health, Bethesda, MD, USA) and expressed as ratios of respective control (EV group). […] The fluorescent images of the H2S (blue) were accordingly quantified (“Materials and Methods” section) with ImageJ. […] A representative fluorescence image from three independent experiments is shown. […]\nH2S levels in living cells were detected using a H2S-specific fluorescent probe according to a protocol described previously[31],[55]. […] After incubation with 50 μM AzMC at 37 °C for 30 min, the cells were washed 4 times with PBS, and the fluorescent images were recorded with excitation by 405 nm laser by using a A1Si (Nikon) confocal microscope. […]"}, "[2]": {"tested_on": "HepG2, HEK293T, Huh7, H22, Panc-28, HCT116 and MDA-MB-231 cells", "experiment": "cell proliferation, all tested cell lines", "type": "cell-based", "conditions": "24 h; read-out: IC50 range, proliferation of all tested cells", "method": "With a bioactive and selective inhibitor of CBS in hand, we examined the effect of CH004 on the proliferation of HepG2 and HEK293T cells as well as hepatocellular carcinoma Huh7 and H22, pancreatic cancer Panc-28, colon cancer HCT116 and breast cancer MDA-MB-231 cells. […] HCT116 was the most affected cell line with an IC50 of 4 μM amongst tested cell lines (Fig. 4a and Supplementary Figure 11). […] To confirm that CH004-mediated inhibitory effects are due to the specific inhibition of hCBS, we generated hCBS-overexpressed (293T-CBS WT) stable cell lines by transducing HEK293T cells with lentivirus carrying hCBS WT genes. […] In supporting the pros of CBS on the proliferation, knock-down of CBS indeed substantially retards cell proliferation in HEK293T cells (Supplementary Figure 12c, d). […] Importantly, CH004 could largely retard the colony formation of HepG2 cells with an IC50 of ~8 μM (Supplementary Figure 12e–g).\nTo measure cell viability and cytotoxicity, HepG2, HEK293T, Huh-7, H22, Panc-28, HCT116 and MDA-MB-231 cells were seeded at a density of ~ 2 × 10^4 cells per well in 96-well plates (Coring, NY, USA) for one day, followed by incubation with DMSO or various concentrations of tested compound for indicated times. […]"}, "[3]": {"experiment": "viable cells (Annexin V-PI double negative) with CH004 and ferroptosis inhibitors, flow cytometry", "conditions": "human"}}, "note": "Entries after “also recorded” stand apart in the source; their conditions may differ.", "data": [{"compound": "Cn1nc(Cc2ccccc2)nc2c(=O)n(C)c(=O)nc1-2", "note": "[CH004, 3-benzyl-1,6-dimethylpyrimido[5,4-e][1,2,4]triazine-5,7(1H,6H)-dione]", "values": [{"measurement": "effect on H2S", "setting": "[1]", "result": "no significant decrease; also recorded: hardly affected"}, {"measurement": "IC50", "setting": "[2]", "result": "4 to 25", "unit": "µM"}, {"measurement": "viability at 24 h, 15 μM", "setting": "[3]", "result": 30.8, "unit": "%"}]}]}
